Assay results reported in ChEMBL document CHEMBL1138997, “Synthesis and antitumor activity of simplified ecteinascidin-saframycin analogs” (Bioorg Med Chem Lett, 2006).

Columns and labels:
Format in all cases: functional, cell-based
Conditions in all cases: Homo sapiens
HCT-8 = test: Cytotoxicity against HCT8 colon carcinoma cell
Bel-7402 = test: Cytotoxicity against Bel7402 liver carcinoma cell
BGC-823 = test: Cytotoxicity against BGC823 gastric carcinoma cell

Compound `COc1cc2c(cc1OC)[C@@H]1[C@@H]3Cc4cc(OC)c(OC)cc4[C@H](COC(=O)c4ccccc4)N3[C@@H](C#N)[C@H](C2)N1C` has an IC50 (HCT-8) of 440 nM, an IC50 (Bel-7402) of 590 nM and an IC50 (BGC-823) of 15 nM.
For `COc1cc2c(cc1OC)[C@@H]1[C@@H]3Cc4cc(OC)c(OC)cc4[C@H](COC(=O)c4cnccn4)N3[C@@H](C#N)[C@H](C2)N1C`, the IC50 (HCT-8) was 3480 nM, the IC50 (Bel-7402) was 3500 nM and the IC50 (BGC-823) was 1690 nM.
`COc1cc2c(cc1OC)[C@@H]1[C@@H]3Cc4cc(OC)c(OC)cc4[C@H](COC(=O)c4cccnc4)N3[C@@H](C#N)[C@H](C2)N1C` was tested, and the IC50 (HCT-8) was 3280 nM, the IC50 (Bel-7402) was 2100 nM and the IC50 (BGC-823) was 1020 nM.
Work on `COc1cc2c(cc1OC)[C@@H]1[C@@H]3Cc4cc(OC)c(OC)cc4[C@H](CNC(=O)c4ccccc4)N3[C@@H](C#N)[C@H](C2)N1C` yielded an IC50 (HCT-8) of 1350 nM, an IC50 (Bel-7402) of 1350 nM and an IC50 (BGC-823) of 1400 nM.
With `COc1cc2c(cc1OC)[C@@H]1[C@@H]3Cc4cc(OC)c(OC)cc4[C@H](CNC(=O)c4ccccc4Cl)N3[C@@H](C#N)[C@H](C2)N1C` the IC50 (HCT-8) was 1850 nM, the IC50 (Bel-7402) was 1870 nM and the IC50 (BGC-823) was 1910 nM.
Work on `COc1cc2c(cc1OC)[C@@H]1[C@@H]3Cc4cc(OC)c(OC)cc4[C@H](COC(C)=O)N3[C@@H](C#N)[C@H](C2)N1C` yielded an IC50 (HCT-8) of 310 nM, an IC50 (Bel-7402) of 340 nM and an IC50 (BGC-823) of 150 nM.
With `COc1cc2c(cc1OC)[C@@H]1[C@@H]3Cc4cc(OC)c(OC)cc4[C@H](COC(=O)c4cccc(Cl)c4)N3[C@@H](C#N)[C@H](C2)N1C` the IC50 (HCT-8) was 100 nM, the IC50 (Bel-7402) was 1120 nM and the IC50 (BGC-823) was 29 nM.
`COc1cc2c(cc1OC)[C@@H]1[C@@H]3Cc4cc(OC)c(OC)cc4[C@H](COC(=O)c4cncc(Br)c4)N3[C@@H](C#N)[C@H](C2)N1C` showed an IC50 (HCT-8) of 1170 nM, an IC50 (Bel-7402) of 1490 nM and an IC50 (BGC-823) of 450 nM.
Work on `COc1cc2c(cc1OC)[C@@H]1[C@@H]3Cc4cc(OC)c(OC)cc4[C@H](COC(=O)CCCc4ccccc4)N3[C@@H](C#N)[C@H](C2)N1C` yielded an IC50 (HCT-8) of 830 nM, an IC50 (Bel-7402) of 120 nM and an IC50 (BGC-823) of 750 nM.
`COc1cc2c(cc1OC)[C@@H]1[C@@H]3Cc4cc(OC)c(OC)cc4[C@H](CNC(=O)/C=C/c4ccccc4)N3[C@@H](C#N)[C@H](C2)N1C` was tested, and the IC50 (HCT-8) was 1780 nM, the IC50 (Bel-7402) was 1450 nM and the IC50 (BGC-823) was 1310 nM.
Compound `COc1cc2c(cc1OC)[C@@H]1[C@@H]3Cc4cc(OC)c(OC)cc4[C@H](COC(=O)c4cc5ccccc5[nH]4)N3[C@@H](C#N)[C@H](C2)N1C` has an IC50 (HCT-8) of 620 nM, an IC50 (Bel-7402) of 850 nM and an IC50 (BGC-823) of 10 nM.
For `COc1cc2c(cc1OC)[C@@H]1[C@@H]3Cc4cc(OC)c(OC)cc4[C@H](COC(=O)/C=C/c4ccccc4)N3[C@@H](C#N)[C@H](C2)N1C`, the IC50 (HCT-8) was 37 nM, the IC50 (Bel-7402) was 680 nM and the IC50 (BGC-823) was 58 nM.
`COc1cc2c(cc1OC)[C@@H]1[C@@H]3Cc4cc(OC)c(OC)cc4[C@H](COC(=O)c4cccs4)N3[C@@H](C#N)[C@H](C2)N1C` gave an IC50 (HCT-8) of 1600 nM, an IC50 (Bel-7402) of 820 nM and an IC50 (BGC-823) of 210 nM.
With `COc1cc2c(cc1OC)[C@@H]1[C@@H]3Cc4cc(OC)c(OC)cc4[C@H](COC(=O)c4cccc5ccccc45)N3[C@@H](C#N)[C@H](C2)N1C` the IC50 (HCT-8) was 340 nM, the IC50 (Bel-7402) was 710 nM and the IC50 (BGC-823) was 6 nM.
`COc1cc2c(cc1OC)[C@@H]1[C@@H]3Cc4cc(OC)c(OC)cc4[C@H](CNC(=O)c4cccs4)N3[C@@H](C#N)[C@H](C2)N1C` gave an IC50 (HCT-8) of 1280 nM, an IC50 (Bel-7402) of 790 nM and an IC50 (BGC-823) of 1160 nM.
In the case of `COc1cc2c(cc1OC)[C@@H]1[C@@H]3Cc4cc(OC)c(OC)cc4[C@H](COC(=O)Cc4ccc(F)cc4)N3[C@@H](C#N)[C@H](C2)N1C`, the IC50 (HCT-8) is reported as 240 nM, the IC50 (Bel-7402) is reported as 200 nM and the IC50 (BGC-823) is reported as 200 nM.
Compound `COc1cc2c(cc1OC)[C@@H]1[C@@H]3Cc4cc(OC)c(OC)cc4[C@H](CNC(=O)c4ccco4)N3[C@@H](C#N)[C@H](C2)N1C` has an IC50 (HCT-8) of 1380 nM, an IC50 (Bel-7402) of 1200 nM and an IC50 (BGC-823) of 1320 nM.
`C=CC(=O)NC[C@H]1c2cc(OC)c(OC)cc2C[C@H]2[C@H]3c4cc(OC)c(OC)cc4C[C@@H]([C@H](C#N)N12)N3C` showed an IC50 (HCT-8) of 2710 nM, an IC50 (Bel-7402) of 1870 nM and an IC50 (BGC-823) of 2000 nM.
For `COc1cc2c(cc1OC)[C@@H]1[C@@H]3Cc4cc(OC)c(OC)cc4[C@H](COC(=O)c4ccco4)N3[C@@H](C#N)[C@H](C2)N1C`, the IC50 (HCT-8) was 690 nM, the IC50 (Bel-7402) was 750 nM and the IC50 (BGC-823) was 580 nM.
In the case of `COc1ccc(CC(=O)OC[C@H]2c3cc(OC)c(OC)cc3C[C@H]3[C@H]4c5cc(OC)c(OC)cc5C[C@@H]([C@H](C#N)N23)N4C)cc1`, the IC50 (HCT-8) is reported as 3560 nM, the IC50 (Bel-7402) is reported as 3010 nM and the IC50 (BGC-823) is reported as 1140 nM.
Work on `COc1cc2c(cc1OC)[C@@H]1[C@@H]3Cc4cc(OC)c(OC)cc4[C@H](CNC(=O)c4cccc5ccccc45)N3[C@@H](C#N)[C@H](C2)N1C` yielded an IC50 (HCT-8) of 1720 nM, an IC50 (Bel-7402) of 2080 nM and an IC50 (BGC-823) of 1860 nM.
With `COc1cc2c(cc1OC)[C@@H]1[C@@H]3Cc4cc(OC)c(OC)cc4[C@H](CNC(=O)c4ccc([N+](=O)[O-])cc4)N3[C@@H](C#N)[C@H](C2)N1C` the IC50 (HCT-8) was 1230 nM, the IC50 (Bel-7402) was 1220 nM and the IC50 (BGC-823) was 1370 nM.
`COc1cc2c(cc1OC)[C@@H]1[C@@H]3Cc4cc(OC)c(OC)cc4[C@H](CNC(=O)c4cccc(Cl)c4)N3[C@@H](C#N)[C@H](C2)N1C` gave an IC50 (HCT-8) of 1540 nM, an IC50 (Bel-7402) of 950 nM and an IC50 (BGC-823) of 1010 nM.
`CCC(=O)OC[C@H]1c2cc(OC)c(OC)cc2C[C@H]2[C@H]3c4cc(OC)c(OC)cc4C[C@@H]([C@H](C#N)N12)N3C` gave an IC50 (HCT-8) of 300 nM, an IC50 (Bel-7402) of 110 nM and an IC50 (BGC-823) of 150 nM.
`C=CC(=O)OC[C@H]1c2cc(OC)c(OC)cc2C[C@H]2[C@H]3c4cc(OC)c(OC)cc4C[C@@H]([C@H](C#N)N12)N3C` was tested, and the IC50 (HCT-8) was 2140 nM, the IC50 (Bel-7402) was 760 nM and the IC50 (BGC-823) was 460 nM.
In the case of `COc1cc2c(cc1OC)[C@@H]1[C@@H]3Cc4cc(OC)c(OC)cc4[C@H](COC(=O)[C@H]4Cc5ccccc5CN4Cc4ccccc4)N3[C@@H](C#N)[C@H](C2)N1C`, the IC50 (HCT-8) is reported as 1420 nM, the IC50 (Bel-7402) is reported as 1690 nM and the IC50 (BGC-823) is reported as 360 nM.
Compound `COc1cc2c(cc1OC)[C@@H]1[C@@H]3Cc4cc(OC)c(OC)cc4[C@H](COC(=O)c4ccccn4)N3[C@@H](C#N)[C@H](C2)N1C` has an IC50 (HCT-8) of 5150 nM, an IC50 (Bel-7402) of 2020 nM and an IC50 (BGC-823) of 1440 nM.
